Measurements: US4812465A, “Triazole derivatives for use as antimycotic agents” (CL Pharma Aktiengesellschaft, priority 1986, dated 1989)
≈ marks a conversion by molar mass, not a printed value. Where “and” joins values, the source holds several entries; their conditions need not be identical. Equal values may be shown once. Read-outs that look alike come from different tables or passages of the source.

Experiments:
Assay in all cases: In vitro determination of minimum inhibitory concentration (MIC), serial dilution
Assay type in all cases: cell-based
Absidia ramosa = settings: Lichtheimia ramosa, 336 h, pH 6, Absidia ramosa; pH 6.0, 22° C., 14 days
Experimental: (§1) The antimycotic activities of the compounds were measured by in vitro determination of the minimum inhibitory concentration (MIC) for yeasts, molds and dermatophytes.
(§2) 6 dermatophytes, 2 yeasts and 4 molds were used for testing with fungi, as follows:
(§3) The minimum inhibitory concentration (MIC) was determined in serial dilution tests in test tubes. The volume of the liquid nutrient medium in each test tube was 4.5 ml.
(§4) The substances were dissolved in DMSO and diluted with sterile distilled water to 10 concentrations (100, 50, 25, 12.5, 6.25, 3.12, 1.56, 0.78, 0.39 and 0.19 μg/ml). 0.5 ml of each of these dilution steps was added to liquid nutrient medium. Thus, a constant concentration of solvent in all the nutrient media was ensured, irrespective of the active compound concentration.
(§5) A comparison solution which contained only the solvent in appropriate concentration was included when carrying out each of the tests.
(§6) The individual strains were maintained on Sabouraud/beerwort agar slants and, before they were used in a test, they underwent a passage on a modified Sabouraud liquid nutrient medium. The strains were then harvested, washed and converted into a suspension of McFaerland 3 in the case of yeasts and molds and of McFaerland 4-5 in the case of dermatophytes.
(§7) The amount of material inoculated (inoculum) was 100 μl/test tube (inoculated densities: yeasts about 10^3 /ml, molds about 10^4 /ml, dermatophytes about 10^4 /ml). The pH of the liquid nutrient medium was 6.0. After inoculation had taken place the fungi were incubated at 22° C. for 14 days.
(§8) The MIC was then determined. The concentration step at which growth was no longer visible on macroscopic inspection was used for the determination of the MIC. The comparison substance used was 1-(2-(2,4-dichlorophenyl)-2-(2,4-dichlorophenylmethoxy)ethyl)-1H-imidazole(compound A).

Aspergillus fumigatus = system: Aspergillus fumigatus
Experimental: as §1, §2, §3, §4, §5, §6, §7, §8

Candida albicans = settings: 336 h
Experimental: as §1, §2, §3, §4, §5, §6, §7, §8

Candida tropicalis = settings: 336 h
Experimental: as §1, §2, §3, §4, §5, §6, §7, §8

Epidermophyton floccosum = settings: pH 6.0, 22° C., 14 days; for MIC: 336 h, pH 6, Epidermophyton floccosum
Experimental: as §1, §2, §3, §4, §5, §6, §7, §8

Microsporum canis = settings: 336 h, pH 6, Microsporum canis, pH 6.0, 22° C., 14 days
Experimental: as §1, §2, §3, §4, §5, §6, §7, §8

Microsporum gypseum = settings: Nannizzia gypsea, 336 h
Experimental: as §1, §2, §3, §4, §5, §6, §7, §8

Mucor mucedo minus = settings: Mucor mucedo, 336 h, pH 6, Mucor mucedo minus; pH 6.0, 22° C., 14 days
Experimental: as §1, §2, §3, §4, §5, §6, §7, §8

Mucor mucedo plus = settings: Mucor mucedo, 336 h, pH 6, Mucor mucedo plus; pH 6.0, 22° C., 14 days
Experimental: as §1, §2, §3, §4, §5, §6, §7, §8

[1] = system: Trichophyton mentagrophytes; settings: 336 h, pH 6, Trichophyton mentagrophytes, pH 6.0, 22° C., 14 days
Experimental: as §1, §2, §3, §4, §5, §6, §7, §8

Trichophyton rubrum = settings: 336 h, pH 6, Trichophyton rubrum, pH 6.0, 22° C., 14 days
Experimental: as §1, §2, §3, §4, §5, §6, §7, §8

Trichophyton verrucosum = settings: 336 h, pH 6, Trichophyton verrucosum, pH 6.0, 22° C., 14 days
Experimental: as §1, §2, §3, §4, §5, §6, §7, §8

[2] = pH 6, Candida albicans, pH 6.0, 22° C., 14 days, read-out: MIC C.alb
[3] = pH 6, Candida tropicalis, pH 6.0, 22° C., 14 days, read-out: MIC C.trop
[4] = pH 6, Microsporum gypseum, pH 6.0, 22° C., 14 days, read-out: MIC Mi.gyp

| Structure (SMILES) | MIC (Absidia ramosa) | MIC Asp.fu. (Aspergillus fumigatus; 20160 min, pH 6) | MIC (Candida albicans; [2]) | MIC (Candida tropicalis; [3]) | MIC (Epidermophyton floccosum) | MIC (Microsporum canis) | MIC (Microsporum gypseum; [4]) | MIC (Mucor mucedo minus) | MIC (Mucor mucedo plus) | MIC [1] | MIC (Trichophyton rubrum) | MIC (Trichophyton verrucosum) | MIC Asp.fu. (Aspergillus fumigatus; Aspergillus fumigatus, pH 6.0, 22° C., 14 days) | MIC (Candida albicans; pH 6, read-out: MIC C.alb) | MIC (Candida tropicalis; pH 6, read-out: MIC C.trop) | MIC (Microsporum gypseum; pH 6, read-out: MIC Mi.gyp) | MIC Ep.flo (Epidermophyton floccosum) |
| --- | --- | --- | --- | --- | --- | --- | --- | --- | --- | --- | --- | --- | --- | --- | --- | --- | --- |
| Clc1ccc(C(Cn2cncn2)NCCCSc2ccc(Br)cc2)c(Cl)c1 (stereo not drawn) [Compound 104] | 100 µg/mL (≈ 206 µM) | 100 µg/mL (≈ 206 µM) | 25 µg/mL (≈ 51.4 µM) | 12.5 µg/mL (≈ 25.7 µM) | 12.5 µg/mL (≈ 25.7 µM) | 100 µg/mL (≈ 206 µM) | 6.25 µg/mL (≈ 12.9 µM) | 50 µg/mL (≈ 103 µM) | 12.5 µg/mL | 25 µg/mL (≈ 51.4 µM) | 6.25 µg/mL (≈ 12.9 µM) | 12.5 µg/mL (≈ 25.7 µM) | – | – | – | – | – |
| Clc1ccc(COC(Cn2ccnc2)c2ccc(Cl)cc2Cl)c(Cl)c1 (stereo not drawn) [A, 1-(2-(2,4-dichlorophenyl)-2-(2,4-dichlorophenylmethoxy)ethyl)-1H-imidazole, reference compound] | 12.5 µg/mL (≈ 30 µM) | – | – | – | 1.56 µg/mL (≈ 3.75 µM) | 6.25 µg/mL (≈ 15 µM) | – | 12.5 µg/mL (≈ 30 µM) | 12.5 µg/mL | 1.56 µg/mL (≈ 3.75 µM) | 6.25 µg/mL (≈ 15 µM) | 6.25 µg/mL (≈ 15 µM) | 3,12 μg/ml | 12.5 µg/mL (≈ 30 µM) | 12.5 µg/mL (≈ 30 µM) | 3.12 µg/mL (≈ 7.5 µM) | – |
| Clc1ccc(C(Cn2cncn2)NCCSc2ccc(Br)cc2)c(Cl)c1 (stereo not drawn) [Compound 36] | 100 µg/mL (≈ 212 µM) | 100 µg/mL (≈ 212 µM) | 25 µg/mL (≈ 52.9 µM) | 12.5 µg/mL (≈ 26.5 µM) | 12.5 µg/mL (≈ 26.5 µM) | 100 µg/mL (≈ 212 µM) | 6.25 µg/mL (≈ 13.2 µM) | 50 µg/mL (≈ 106 µM) | 12.5 µg/mL | 25 µg/mL (≈ 52.9 µM) | 6.25 µg/mL (≈ 13.2 µM) | 12.5 µg/mL (≈ 26.5 µM) | – | – | – | – | – |
| Clc1ccc(C(Cn2ccnc2)NCCSc2ccc3ccccc3c2)c(Cl)c1 (stereo not drawn) [Compound 40] | 12.5 µg/mL (≈ 28.3 µM) | – | 6.25 µg/mL (≈ 14.1 µM) | – | – | – | 3.12 µg/mL (≈ 7.05 µM) | 25 µg/mL (≈ 56.5 µM) | 12.5 µg/mL | 6.25 µg/mL (≈ 14.1 µM) | 3.12 µg/mL (≈ 7.05 µM) | 3.12 µg/mL (≈ 7.05 µM) | – | – | – | – | 3,12 μg/ml and 6,25 μg/ml |
